Measurements as given in patent US20210251999A1, “Treatment of Conditions Associated With Decreased Folate in Cerebral Spinal Fluid” (priority 2011, published 2021).

Tests used:
Assay type in all cases: in vivo, human
[1] = Clinical improvement of a patient with cerebrospinal folate deficiency (case report, Example 2); conditions: patient Example 2; after 5-methyltetrahydrofolate treatment (folinic acid 5 mg twice per day)
Procedure: After Example 2's diagnosis, Example 2 was placed on 5-methyltetrahydrofolate in the form of folinic acid (5 mg twice per day). Within approximately four months, Example 2's cerebrospinal folate levels rose from 32 L (preferred range 40-128) to approximately 88 (above the midpoint of the range). […] Thus, reduced folates are critical.

[2] = Cerebrospinal folate level in a patient with cerebrospinal folate deficiency (case report, Example 2); conditions: patient Example 2; folinic acid 5 mg twice per day; within approximately four months; rose from 32 L (preferred range 40-128)
Procedure: Example 1 was tested for cerebrospinal folate deficiency approximately four months after Example 2's testing. […] Studies have shown that the earlier the anemias associated with cerebrospinal folate deficiency are addressed, the better the adversely impacted individual can overcome more long-term effects of the associated folate deficiency.
After Example 2's diagnosis, Example 2 was placed on 5-methyltetrahydrofolate in the form of folinic acid (5 mg twice per day).

[3] = Hematological response (reticulocytes) in a hypothyroid neonate after vitamin B12 supplementation (case report, Example 1); conditions: patient Example 1 (neonate); additional nutritional supplement containing 2 mcg of vitamin B12
From the text: In another example: a patient (later referred to as Example 1, and also a twin of Example 2) suffered from clinical signs of cerebrospinal folate deficiency at birth. Example 1 received infant milk formula that contained vitamin B12. […] It is noted that the multivitamin nutritional supplement was Poly-Vi-Sol. Example 2 received a version of Poly-Vi-Sol that was fortified with iron, but that contained no vitamin B12. It is further noted that neither the version of Poly-Vi-Sol (without the iron fortification) nor the Poly-Vi-Sol (with iron fortification) contained any folate. Thus, the disclosed subject matter addresses the need for Poly-Vi-Sol, and other vitamin supplements that are given to neonates, infants and toddlers, to contain the methods and compositions described herein.
Both Example 1 and Example 2 were treated for iron deficiencies with iron supplements. Example 1 and Example 2 received different nutritional supplementation with respect to vitamin B 12. Although Example 2 did receive the same infant milk formula that Example 1 received, which infant milk formula contained vitamin B 12, Example 2 received less of the infant milk formula than Example 1, and Example 2 received in lieu of the infant milk formula more of the breast milk from the hypothyroid […]. […]

Nc1nc2c(c(=O)[nH]1)N(C=O)C(CNc1ccc(C(=O)N[C@@H](CCC(=O)O)C(=O)O)cc1)CN2 (stereo partly drawn) [folinic acid, 6(R,S)-5-formyltetrahydrofolate]
physical, behavioral and social skills [1]: showed improvement in physical, behavioral and social skills
cerebrospinal folate levels [2]: approximately 88

vitamin B 12
hematological response: reticulocytes [3]: increase in reticulocytes, moving from below normal to normal
